# Data from patent publication US9180111B2, “Reduction in complement activation and inflammation during tissue injury by carotenoids, carotenoid analogs, or derivatives thereof” (Cardax Pharma, Inc., priority 2005, dated 2015).
# Experiments:
# [1] = tested on: superoxide anion; assay: Direct superoxide anion scavenging by EPR spectroscopy (DEPMPO spin-trap) in PMA-stimulated isolated human neutrophils; assay type: cell-based; conditions: aqueous phase
# Method: Human polymorphonuclear leukocytes (PMNs) were isolated from freshly sampled venous blood of a single volunteer by Percoll density gradient centrifugation as described previously. Briefly, each 10 mL of whole blood was mixed with 0.8 mL of 0.1 M EDTA and 25 mL of saline. The diluted blood was then layered over 9 mL of Percoll at a specific density of 1.080 g/mL. After centrifugation at 400×g for 20 min at 20° C., the plasma, mononuclear cell, and Percoll layers were removed. Erythrocytes were subsequently lysed by addition of 18 mL of ice-cold water for 30 s, followed by 2 mL of 10×PIPES buffer (25 mM PIPES, 110 mM NaCl, and 5 mM KCl, titrated to pH 7.4 with NaOH). Cells were then pelleted at 4° C., the supernatant was decanted, and the procedure was repeated. […] Afterward, PMNs were counted by light microscopy on a hemocytometer. […] The microwave frequency was measured with a Model 575 microwave counter (EIP Microwave, Inc., San Jose, Calif.). […]
# Instrument settings used in the spin-trapping experiments were as follows: modulation amplitude, 0.32 G; time constant, 0.16 s; scan time, 60 s; modulation frequency, 100 kHz; microwave power, 20 milliwatts; and microwave frequency, 9.76 GHz. The samples were placed in a quartz EPR flat cell, and spectra were recorded. The component signals in the spectra were identified and quantified as reported previously.
# [2] = tested on: mongrel canines; conditions: 50 mg/kg i.v., four days; cited from earlier work
# [3] = tested on: cardiac-specific troponin I (cTnI); assay: Measurement of cardiac-specific troponin I by ELISA; assay type: in vivo, rabbit; conditions: rabbits, 50 mg/kg i.v. 4 days; not statistically significant
# Method: Whole blood was drawn at baseline (pre-ischemia) and at the end of reperfusion for the determination of cardiac-specific troponin I (cTnI). Serum levels of the proteins were measured using a commercially available ELISA kit. Collected plasma samples were prepared from whole blood and were snap frozen in liquid nitrogen. The samples were stored at −80° C. until the day of the assay when they were thawed over ice and diluted appropriately with the sample diluent supplied with each assay kit. Determination of the target protein using a protein standard curve was performed according to standard procedure in the art.
# [4] = tested on: MAC (C5b-9); assay: MAC deposition in heart tissue by indirect immunofluorescence; assay type: in vivo, rabbit; conditions: rabbits, 50 mg/kg i.v. 4 days, 30 min ischemia, 3 h reperfusion; p<0.05
# Method: The immunofluorescent method for detection of CRP was performed essentially as described previously (Lauver et al., 2005). Briefly, tissue samples used for infarct size determination were fixed in 10% buffered formalin immediately after the completion of the experimental protocol. The tissue samples were embedded in paraffin blocks and cut into sections of 2 μm in thickness, which were then mounted on glass slides. Two consecutive sections (mirror images) from a single heart slice were mounted on each slide. The slides were deparaffinized and subjected to antigen unmasking using a commercially available kit for this purpose (Vector Laboratories, Burlingame, Calif.). After blocking for 30 minutes, primary antibodies were incubated at room temperature in a humidity chamber for 45 minutes. One section per slide was incubated with a chicken anti-rabbit CRP antibody (5 μg/ml final concentration, Strategic BioSolutions, Newark, Del.) and the other section was incubated with a chicken anti-rabbit MAC antibody (1:2500 final dilution, developed in conjunction with Lampire Biological Laboratories, Pipersville, Pa.). […] Images were analyzed using IP Lab (Scanalytics, Inc., Fairfax, Va.) software to determine mean fluorescence intensity per heart section. […]
# [5] = tested on: rabbit complement system; assay: Complement-mediated red blood cell (RBC) hemolysis assay, ex vivo, rabbit plasma on human erythrocytes; assay type: in vivo; conditions: plasma after 3 h reperfusion, 50 mg/kg, 4 days; p<0.01
# Method: A red blood cell (RBC) lysis assay was used to determine whether the pretreatment with DDA compared to placebo-treated animals was able to inhibit the rabbit complement system. The ex vivo analysis of complement activity is based on the C5b-9-dependent lysis of human red blood cells upon exposure to rabbit plasma. Complement-mediated RBC hemolysis was assessed by a turbidometric method described previously (Pascual et al., 1990). The hemolysis assay is an accepted method of assessing the complement titer of plasma or serum samples (Whaley, 1985). Rabbit plasma was obtained from whole blood samples drawn from rabbits that were pretreated with DDA (50 mg/kg, 4 days, n=5) or sterile 0.9% sodium chloride solution (4 days, n=5). After obtaining informed consent, human whole blood for the isolation of red blood cells was obtained by venipuncture of the forearm vein of a healthy donor who had not been exposed to any medication for the past seven days. The cells were washed three times in 10 ml phosphate buffered saline (PBS, pH 7.4) and diluted in PBS to achieve a final RBC concentration of 1×10^8 cells/ml. The assay was initiated by the addition of 15 μl of diluted human RBCs to 185 μl of rabbit plasma, and the light transmittance was monitored for 5 min. The final assay volume was 200 μl. […]
# [6] = tested on: Sprague-Dawley rats; conditions: 50 mg/kg i.v., four days; cited from earlier work
compound,measurement,setting,value
"CC1=C(/C=C/C(C)=C/C=C/C(C)=C/C=C/C=C(C)/C=C/C=C(C)/C=C/C2=C(C)C(=O)C(OC(=O)CCC(=O)O)CC2(C)C)C(C)(C)CC(OC(=O)CCC(=O)O)C1=O (stereo not drawn) [DDA, disodium disuccinate astaxanthin]",direct aqueous superoxide anion scavenging,[1],potent direct scavengers of superoxide anion
same,mean myocardial salvage,[2],68%
same,mean serum cTnI concentration at the end of reperfusion versus vehicle controls,[3],lower mean cTnI concentration
same,MAC deposition in infarct region (fluorescence intensity) versus saline,[4],significantly reduced fluorescence
same,rabbit plasma-induced human erythrocyte hemolysis versus placebo,[5],significantly attenuated
same,mean myocardial salvage,[6],41%
